Data: PMC12119673, “Apoptotic cell death induced by copper (II), manganese (II) and silver (I) complexes containing bridging dicarboxylate and 1,10-phenanthroline ligands: one of the multi-modes of anticancer activity?” (Biometals, 2025)

Assays:
Assay type in all cases: cell-based, human
[1] = test system: caspase-3/7 in MCF-12A cells; assay: Caspase 3/7 expression, FLICA (FAM-DEVD-FMK) flow cytometry; conditions: IC25 concentration, 24 h
Experimental: The expression of caspase-3/7 in MCF-7 and MCF-12A cells was determined using the VybrantTM FAM™ Caspase-3 and Caspase-7 Assay Kit (Cat# V35118) (Thermo Fisher Scientific, Ireland). Cells were seeded at a density of 1 × 10^5 in T25 flasks and incubated in routine conditions for 24 h. […] Post-exposure, the cells were harvested for staining.
Flow cytometry data analysis was performed with the CytExpert package (Ver. 2.4) (Beckman Coulter, USA) and Microsoft^Ⓡ Excel (USA). The mean MFI and percentage cells were calculated using these packages, followed by one-way ANOVA analysis with post hoc Bonferroni correction using GraphPad Prism (Ver. 9.4) (GraphPad, USA).
The expression of caspase-3/7 was analysed in MCF-7 and MCF-12A cells using fluorescent labelled inhibitors of caspase (FLICA): FAM-DEVD-FMK. […] Following the apoptosis induction study, it was of interest to determine whether the complexes were stimulating the executioner caspases triggering the irreversible proteolytic degradation of cells, culminating in cell death. […] These three complexes were selected based on their structural similarities, while incorporating alternative metal centres.

[2] = In vitro cytotoxicity assessment, alamar blue assay, 24-h exposure; conditions: human, MCF-12A cells; MCF-12A, 24-h exposure, 50% reduction in metabolic activity, mean ± SD (N = 3); read-out: Cytotoxic activity IC50 ± SD
Experimental: The MCF-7 (human breast cancer) and MCF-12A (non-tumourigenic human breast) cell lines were obtained from the Technological University Dublin (TUDublin, City Campus) internal cell bank and commercially from the American Type Culture Collection (ATCC), respectively. Both cell lines were cultured using Dulbecco’s Modified Eagle Medium/Nutrient Mixture F-12 Ham (DMEM-F12) (Sigma, Ireland) (Cat# D6421) media. The MCF-7 media was supplemented with 10% Foetal Bovine Serum (Sigma, Ireland) (Cat# F7524) and 1% L-Glutamine (Sigma, Ireland) (Cat# 592020C). The MCF-12A media was supplemented with 5% Equine Serum (Sigma, Ireland) (Cat# H0146) 1.25% L-Glutamine (Sigma, Ireland) (Cat# 592020C), 20 ng/ml Human Epidermal Growth Factor (Thermo Fisher Scientific, Ireland) (Cat# PHG0313), 0.01 mg/ml insulin (Thermo Fisher Scientific, Ireland)(Cat# 12585014) and 500 ng/ml hydrocortisone (Sigma, Ireland) (Cat# H0888). The cells were grown in T75 culture flasks (Sarstedt, Germany) (Cat# 83.3911.002) and were incubated in a 5% CO2 atmosphere at 37 ℃. The cells were monitored daily, and once 80–90% confluence was reached, they were subcultured with an enzymatic dissociation method using trypsin. Both cell lines were routinely subcultured for 1 week prior to beginning experimental work, to ensure the cells had adapted to the environment.
The MCF-7 and MCF-12A cells were seeded at a density of 1 × 10^4 in 96-well flat bottom plates (Sarstedt, Germany) (Cat# 83.3924) and incubated in a 5% CO2 atmosphere at 37 ℃ for 24 h prior to exposure to the complexes. Following the incubation period, the media was removed, and cells were washed with sterile phosphate-buffered saline (PBS). […] All agents were diluted in supplemented cell culture media, and the cells were exposed to a concentration range of 0.5 μM–100 μM for 24 h in the conditions outlined previously. Following the exposure period, the drug-containing media was removed, and cells were washed three times with PBS, ensuring complete removal of the test agents. A 5% working solution of Alamar Blue (Thermo Fisher Scientific, Ireland) (Cat# DAL1100) was prepared in dark conditions using unsupplemented cell culture media. 100 μl of the solution was added to each well, and the cells were incubated for 3 h. Following incubation, absorbance values were obtained using a Varioskan Lux (Thermo Scientific, USA) at 570 nm and 600 nm wavelengths. Each exposure was carried out in triplicate plates and was repeated three independent times.
The software packages Microsoft^Ⓡ Excel (USA) and GraphPad Prism (Ver. 10.0.3) (GraphPad, USA) were used to analyse the alamar blue data. The treated sample values were first normalised to the negative control values. After normalisation, the mean and standard deviations (SD) were established using Microsoft^Ⓡ Excel. The statistical analysis package GraphPad was then used to determine the IC25 and IC50 concentrations. […] A p value of 0.05 or lower is considered to be statistically significant.

MCF-12A cells = assay: Detection of reactive oxygen species with H2DCFDA; conditions: 0.78 μM to 50 μM, over a 6-h period, fold-change compared to the negative control
Experimental: The production of reactive oxygen species (ROS) was detected in MCF-7 and MCF12A cells using the cell-permeant dye 2',7'- dichlorodihydrofluorescein diacetate (H2DCFDA) (Thermo Fisher Scientific, Ireland) (Cat# D399). Cells were seeded at a density of 1 × 10^4 in 96 well plates and incubated for 24 h. Post-incubation, the media was removed, and cells were washed with PBS. A 10 μM DCFH-DA working solution was prepared using cell culture media, and the cells were incubated with 100 μl of the solution in the dark for 30 min. […] Fluorescent measurements were recorded at 15 min, 30 min, 1 h, and subsequently every hour up to 6 h using a Varioskan Lux™ multimode microplate reader (Thermo Fisher Scientific, Ireland) at an excitation wavelength of 495 nm and emission of 527 nm. The assay was repeated three independent times, using three replicates per plate.
The cells were treated with a concentration range from 0.78 μM to 50 μM, and the response was measured over a 6-h period. This facilitated the evaluation of whether there was a time and/or concentration dependent response from the cells. Hydrogen peroxide (H2O2) was used as a positive control. ROS production is presented as fold-change compared to the negative control.

O=C([O-])CCCCCCC(=O)[O-].[Ag+].[Ag+].c1cnc2c(c1)ccc1cccnc12.c1cnc2c(c1)ccc1cccnc12.c1cnc2c(c1)ccc1cccnc12 [Complex 4, [Ag2(oda)(phen)3]]
Expression of caspase-3/7 (% cells) [1]: highest expression

c1cnc2c(c1)ccc1cccnc12 [Phen, 1,10-Phenanthroline]
IC50 at 24 h [2]: 20.9 ± 1.96 µM

{[Mn2(oda)3(phen)4]^2−[Mn2(oda)(phen)4 (H2O)2]^2+} [Complex 7]
ROS production (MCF-12A cells): markedly elevated production of ROS
